Active and inactive are the calls of the source.
Assays:
[1] = biological target: T1, Sentrin-specific protease 8 (Homo sapiens, UniProt Q96LD8); type: functional;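 note: luminescence read-out of SENP8 inhibition, dose-response confirmation following an ultra-high-throughput screen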
T1 sequence (Q96LD8 whole entry): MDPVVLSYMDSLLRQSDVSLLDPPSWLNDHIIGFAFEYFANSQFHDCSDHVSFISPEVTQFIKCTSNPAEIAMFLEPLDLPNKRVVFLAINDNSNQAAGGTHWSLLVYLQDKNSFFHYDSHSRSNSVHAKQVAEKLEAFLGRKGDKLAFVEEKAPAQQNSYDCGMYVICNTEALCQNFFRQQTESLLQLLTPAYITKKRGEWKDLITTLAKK

Caspase-3 = biological target: T2, Caspase-3 (Homo sapiens, UniProt P42574); type: functional;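 note: Dose-response selectivity test against caspase-3 for candidate inhibitors of sentrin-specific proteases (SENPs)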
T2 sequence (P42574 whole entry): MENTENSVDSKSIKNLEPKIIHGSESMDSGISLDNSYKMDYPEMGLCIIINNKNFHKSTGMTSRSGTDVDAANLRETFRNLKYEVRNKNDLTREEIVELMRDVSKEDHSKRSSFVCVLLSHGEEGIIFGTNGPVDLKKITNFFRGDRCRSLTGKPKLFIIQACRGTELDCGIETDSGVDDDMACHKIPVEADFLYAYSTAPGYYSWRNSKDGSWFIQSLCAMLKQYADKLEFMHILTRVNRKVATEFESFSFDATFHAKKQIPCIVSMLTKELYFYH

[2] = biological target: T3, Sentrin-specific protease 7 (Homo sapiens, UniProt Q9BQF6); type: functional;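 note: Luminescence-based dose-response confirmation of ultra-high-throughput screening hits, measuring inhibition of SENP7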
T3 sequence (Q9BQF6 whole entry): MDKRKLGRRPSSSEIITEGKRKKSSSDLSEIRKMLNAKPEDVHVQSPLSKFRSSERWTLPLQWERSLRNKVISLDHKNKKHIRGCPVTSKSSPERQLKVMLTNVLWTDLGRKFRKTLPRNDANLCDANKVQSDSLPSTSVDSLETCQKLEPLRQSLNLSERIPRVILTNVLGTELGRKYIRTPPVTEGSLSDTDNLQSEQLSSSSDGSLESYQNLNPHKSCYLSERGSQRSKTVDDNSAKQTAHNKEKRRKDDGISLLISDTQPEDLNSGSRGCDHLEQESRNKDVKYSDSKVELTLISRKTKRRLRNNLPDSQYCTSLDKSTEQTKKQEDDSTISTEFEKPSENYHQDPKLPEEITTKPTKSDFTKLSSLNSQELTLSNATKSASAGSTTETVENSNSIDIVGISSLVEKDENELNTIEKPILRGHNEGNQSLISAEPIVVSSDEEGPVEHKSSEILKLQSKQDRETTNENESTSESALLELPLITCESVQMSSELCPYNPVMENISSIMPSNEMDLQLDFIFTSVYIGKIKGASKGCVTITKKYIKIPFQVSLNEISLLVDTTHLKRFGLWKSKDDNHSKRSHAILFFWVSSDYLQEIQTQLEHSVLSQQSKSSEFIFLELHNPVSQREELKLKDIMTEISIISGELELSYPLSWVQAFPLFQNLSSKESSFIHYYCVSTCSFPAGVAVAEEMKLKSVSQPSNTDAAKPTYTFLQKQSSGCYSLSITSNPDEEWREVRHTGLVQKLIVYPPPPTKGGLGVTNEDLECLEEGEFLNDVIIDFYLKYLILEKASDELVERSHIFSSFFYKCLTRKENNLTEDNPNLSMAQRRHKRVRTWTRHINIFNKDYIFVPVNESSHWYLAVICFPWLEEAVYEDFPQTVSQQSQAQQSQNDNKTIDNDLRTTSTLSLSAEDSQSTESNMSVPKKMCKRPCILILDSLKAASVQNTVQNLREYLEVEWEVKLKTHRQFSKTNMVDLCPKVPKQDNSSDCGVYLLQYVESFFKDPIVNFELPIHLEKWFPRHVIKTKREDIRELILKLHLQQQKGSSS

[3] = biological target: T4, Sentrin-specific protease 6 (Homo sapiens, UniProt Q9GZR1); type: functional;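 note: Luminescence-based dose-response confirmatory assay of SENP6 inhibition, following up an ultra-high-throughput screen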
T4 sequence (Q9GZR1 whole entry): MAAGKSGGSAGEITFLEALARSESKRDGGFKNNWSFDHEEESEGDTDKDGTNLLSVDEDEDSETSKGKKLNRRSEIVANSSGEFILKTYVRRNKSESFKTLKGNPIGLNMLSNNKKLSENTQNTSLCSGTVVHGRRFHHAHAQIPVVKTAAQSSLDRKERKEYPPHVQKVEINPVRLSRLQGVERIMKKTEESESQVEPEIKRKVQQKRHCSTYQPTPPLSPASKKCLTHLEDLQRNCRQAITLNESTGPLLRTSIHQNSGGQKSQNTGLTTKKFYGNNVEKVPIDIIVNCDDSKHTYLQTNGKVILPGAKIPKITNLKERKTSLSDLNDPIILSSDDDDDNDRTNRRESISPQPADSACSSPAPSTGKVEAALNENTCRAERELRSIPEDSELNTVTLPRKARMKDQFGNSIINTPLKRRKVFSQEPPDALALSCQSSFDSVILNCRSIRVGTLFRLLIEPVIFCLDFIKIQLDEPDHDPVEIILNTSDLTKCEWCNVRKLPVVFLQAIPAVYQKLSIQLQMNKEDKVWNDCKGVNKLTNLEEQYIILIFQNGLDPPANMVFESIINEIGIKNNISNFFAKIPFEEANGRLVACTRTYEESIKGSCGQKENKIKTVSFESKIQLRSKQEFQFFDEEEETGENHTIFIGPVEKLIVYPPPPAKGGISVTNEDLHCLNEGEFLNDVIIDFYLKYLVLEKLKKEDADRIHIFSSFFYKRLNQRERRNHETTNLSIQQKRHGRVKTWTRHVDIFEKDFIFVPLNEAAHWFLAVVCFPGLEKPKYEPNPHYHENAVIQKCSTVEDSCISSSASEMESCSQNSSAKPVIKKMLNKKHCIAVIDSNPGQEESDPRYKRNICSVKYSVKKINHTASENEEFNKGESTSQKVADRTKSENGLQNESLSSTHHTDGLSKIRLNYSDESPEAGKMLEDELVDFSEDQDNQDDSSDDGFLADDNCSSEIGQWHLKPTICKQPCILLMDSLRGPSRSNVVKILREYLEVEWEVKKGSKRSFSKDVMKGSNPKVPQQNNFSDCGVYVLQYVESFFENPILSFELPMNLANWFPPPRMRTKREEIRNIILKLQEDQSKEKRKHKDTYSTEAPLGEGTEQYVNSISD

Estrogen receptor = biological target: T5, Estrogen receptor (Homo sapiens, UniProt P03372);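 note: potency for inhibiting coactivator peptide recruitment to the receptor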
T5 sequence (P03372 whole entry): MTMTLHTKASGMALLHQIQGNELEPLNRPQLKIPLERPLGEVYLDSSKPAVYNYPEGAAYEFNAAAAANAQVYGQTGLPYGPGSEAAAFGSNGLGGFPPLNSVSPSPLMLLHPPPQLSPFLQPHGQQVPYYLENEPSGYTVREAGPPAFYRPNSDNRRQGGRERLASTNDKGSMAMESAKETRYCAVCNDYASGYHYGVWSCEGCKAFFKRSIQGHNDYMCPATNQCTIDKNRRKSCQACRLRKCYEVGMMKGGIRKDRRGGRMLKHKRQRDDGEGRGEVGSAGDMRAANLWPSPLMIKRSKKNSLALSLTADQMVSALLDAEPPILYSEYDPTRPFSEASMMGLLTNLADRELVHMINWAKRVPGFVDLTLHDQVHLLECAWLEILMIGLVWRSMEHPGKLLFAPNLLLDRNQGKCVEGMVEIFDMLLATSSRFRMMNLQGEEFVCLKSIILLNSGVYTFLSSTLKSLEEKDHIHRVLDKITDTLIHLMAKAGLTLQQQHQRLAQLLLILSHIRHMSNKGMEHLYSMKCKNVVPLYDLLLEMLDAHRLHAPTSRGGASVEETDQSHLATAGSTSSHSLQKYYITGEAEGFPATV

HEK293 [4] = test: cells; type: functional, cell-based; settings: Homo sapiens
HEK293 [5] = test: cells; type: functional, cell-based; settings: Homo sapiens; remark: listed apart in the source
HEK293 [6] = test: NOD2 signaling inhibitors in MDP-stimulated cells, cell-based, uHTS, luminescence (AID 2001); type: functional; settings: Homo sapiens
[7] = Luminescence Cell-Based Dose Retest to Confirm Inhibitors of Cancer Stem Cells. [Related pubchem assays (depositor defined):AID2717, AID2721]; type: functional; settings: Homo sapiens
HEK293 [8] = test: inhibition of NOD1-driven NF-kB reporter – cell-based, luminescence, uHTS, primary screen (AID 1578); type: functional; settings: Homo sapiens
Nonstructural protein 1 = Nonstructural protein 1 (Influenza A virus, UniProt Q194T2); type: functional, Influenza A virus (A/California/07/2009(H1N1))
[9] = Luminescence Cell-Based Dose Response HTS to Identify Activators of Luciferase Translation or Activity in H4 […] Cells. [Related pubchem assays: 1829 (Project Summary), 1814 (Primary HTS)]; type: functional
[10] = Luminescence Cell-Based Dose Confirmation HTS to Identify Activators of 5'UTR Stem-Loop Driven Alpha-Synuclein mRNA Translation in H4 Neuroglioblastoma Cells. [Related pubchem assays: 1829 (Project Summary), 1814 (Primary HTS)]; type: functional
H4 = test: Luminescence Cell-Based Dose Response HTS to Identify Activators of 5'UTR Stem-Loop Driven Prion Protein mRNA Translation in H4 Neuroglioblastoma Cells. [Related pubchem assays: 1829 (Project Summary), 1814 (Primary HTS)]; type: functional; settings: Homo sapiens
Vero = test: cells; type: functional; settings: Chlorocebus sabaeus
[11] = biological target: Heat shock protein HSP 90-alpha (Homo sapiens, UniProt P07900); type: functional, organism-based
[12] = Trypanosoma cruzi growth suppression in host cells – NIH3T3 host cells, beta-gal luminescence, confirmation (AID 2044); type: functional, cell-based;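 note: intracellular parasites grown in NIH/3T3 mouse fibroblasts as host cells; luminescent beta-galactosidase reporter signal from transgenic T. cruzi replicating inside host cells; inhibitors lower the luminescence signal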
[13] = NIH3T3 cell viability loss – ATP luminescence, mouse fibroblasts, counter-screen, dose response (AID 2010); type: functional, cell-based;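 note: cells exposed to compound for about 90 hours before reading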
[14] = biological target: T6, Zinc finger protein mex-5 (Caenorhabditis elegans, UniProt Q9XUB2); test: potency of MEX-5 RNA-binding blockers – biochemical, C. elegans, fluorescence polarization, dose response (AID 1960)
T6 sequence (Q9XUB2 whole entry): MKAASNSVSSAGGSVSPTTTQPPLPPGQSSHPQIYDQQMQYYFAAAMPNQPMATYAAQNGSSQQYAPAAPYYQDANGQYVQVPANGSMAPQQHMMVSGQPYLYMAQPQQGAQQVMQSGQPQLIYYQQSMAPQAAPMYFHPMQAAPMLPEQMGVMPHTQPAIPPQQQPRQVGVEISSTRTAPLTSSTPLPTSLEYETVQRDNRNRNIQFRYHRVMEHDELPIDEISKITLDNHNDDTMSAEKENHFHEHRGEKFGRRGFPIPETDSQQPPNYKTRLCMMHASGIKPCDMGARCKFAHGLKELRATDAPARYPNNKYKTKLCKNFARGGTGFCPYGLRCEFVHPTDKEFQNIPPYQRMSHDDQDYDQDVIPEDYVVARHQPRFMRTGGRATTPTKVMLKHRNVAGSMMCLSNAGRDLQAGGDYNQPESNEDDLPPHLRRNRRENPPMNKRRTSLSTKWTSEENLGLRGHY

[15] = biological target: T7, RNA-binding protein pos-1 (Caenorhabditis elegans, UniProt G5EF15); test: disruptors of C. elegans POS-1 RNA interaction – biochemical, fluorescence polarization, dose response (AID 1964);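 note: purified POS-1 fused to maltose binding protein made in E. coli; potency of compounds blocking POS-1 binding to fluorescent RNA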
T7 sequence (G5EF15 whole entry): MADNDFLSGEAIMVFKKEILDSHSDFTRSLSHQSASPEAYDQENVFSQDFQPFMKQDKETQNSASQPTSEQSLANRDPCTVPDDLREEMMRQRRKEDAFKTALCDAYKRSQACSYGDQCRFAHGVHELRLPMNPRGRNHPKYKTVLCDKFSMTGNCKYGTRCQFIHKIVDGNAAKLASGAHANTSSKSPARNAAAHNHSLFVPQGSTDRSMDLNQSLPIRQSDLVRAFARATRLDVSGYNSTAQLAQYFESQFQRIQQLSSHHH

[16] = biological target: FAD-linked sulfhydryl oxidase ALR (Homo sapiens, UniProt P55789); test: ALR-catalysed DTT oxidation blockers – biochemical, H2O2 detection, luminescence, cherry-pick, dose response (AID 493248)
Chain of FAD-linked sulfhydryl oxidase ALR (P55789 whole entry): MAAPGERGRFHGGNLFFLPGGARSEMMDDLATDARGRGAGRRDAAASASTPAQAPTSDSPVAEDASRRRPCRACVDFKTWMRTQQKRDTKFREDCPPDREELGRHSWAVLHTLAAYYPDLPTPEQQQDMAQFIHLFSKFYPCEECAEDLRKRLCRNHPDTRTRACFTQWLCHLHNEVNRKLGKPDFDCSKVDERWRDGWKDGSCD

Chain of Nonstructural protein 1 (Q194T2 whole entry): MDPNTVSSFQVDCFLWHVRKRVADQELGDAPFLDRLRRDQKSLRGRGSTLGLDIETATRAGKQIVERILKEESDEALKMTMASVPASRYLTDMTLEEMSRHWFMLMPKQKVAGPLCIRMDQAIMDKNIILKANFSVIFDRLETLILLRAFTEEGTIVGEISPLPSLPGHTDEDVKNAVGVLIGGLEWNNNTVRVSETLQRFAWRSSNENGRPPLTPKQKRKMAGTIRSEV

For `Cc1cccc(C(=O)n2c(=S)nc3cc(C)ccn32)c1`, the IC50 [1] was > 100 µM (inactive), the IC50 (Caspase-3) was 87.3 µM (active) and the IC50 [2] was 11 µM (active). For the same molecule, the IC50 [3] was 86.4 µM (active).

With `O=C(Cc1cccs1)Nc1nnc(COc2ccccc2)s1` the IC50 (Estrogen receptor) was 37.3 µM (not active).

With `CC1(C)C=C2[C@H]3CC[C@@H]4[C@@]5(C)CCC(=O)C(C)(C)[C@@H]5CC[C@@]4(C)[C@]3(C)CC[C@@]2(C(=O)O)CC1` [MORONIC ACID] the IC50 (HEK293 [4]) was 10.9 µM (active), the IC50 (HEK293 [5]) was 15.7 µM (active) and the IC50 (HEK293 [6]) was 8.08 µM (active). For the same molecule, the AC50 [7] was 3.35 µM (active) and the EC50 (HEK293 [8]) was 2.27 µM (active).

With `S=C(NNc1ccc2ccccc2c1)NC1CCCCC1` the IC50 (Nonstructural protein 1) was > 100 µM (active), the EC50 [9] was 30.4 µM (active) and the EC50 [10] was 42.1 µM (active). For the same molecule, the EC50 (H4) was 9.85 µM (active).

In the case of `COc1ccc([C@@]2(C(C)C)ON(c3ccccc3C(F)(F)F)C2=O)cc1`, the CC50 (Vero) is reported as > 25 µM (active).

With `C[C@@H]1CC[C@H](Cc2ccc(-n3cccc3)cc2)N1C(=O)OC(C)(C)C` the CC50 (Vero) was > 25 µM (active).

For `Cc1cccc(N2C(=O)C=CC2=O)c1`, the AC50 [11] was 1.63 µM (active).

With `CC1CCN(c2c([N+](=O)[O-])nn(-c3ccc4c(c3)OCCO4)[n+]2[O-])CC1` the IC50 (Nonstructural protein 1) was 58.9 µM (active), the EC50 [12] was 0.431 µM (active) and the EC50 [13] was > 60 µM (not active).

With `O=S(=O)(/C=C/c1ccccc1)NC1CCCCCC1` the AC50 [11] was 10.5 µM (active).

For `Cc1ccc(C[S+]([O-])Cc2ccc(C(=O)N3CCN(c4ccccc4)CC3)o2)cc1` (stereo unspecified), the EC50 [14] was > 300 µM (not active), the EC50 [15] was > 300 µM (not active) and the AC50 [16] was 5.92 µM (active). The EC50 [12] was 7.61 µM (active) and the EC50 [13] was 33.2 µM (active).

For `OCCOCCn1c(C2CCCN2c2nc(-c3ccc(F)cc3)cs2)nc2cc(C(F)(F)F)ccc21` (stereo unspecified), the AC50 [11] was 7.57 µM (active).

For `COc1ccccc1NC(=O)CSc1n[nH]c(-c2ccccn2)n1`, the IC50 (Nonstructural protein 1) was 6.84 µM (active).

In the case of `CC(C)OC(=O)c1cc2c(ccn2C)n1CC(=O)N(Cc1ccccc1)c1ccc(F)cc1`, the IC50 (Nonstructural protein 1) is reported as > 100 µM (active).

In the case of `O=C(CSc1nc2cc(Cl)ccc2s1)NC(=O)NCc1ccco1`, the IC50 (Estrogen receptor) is reported as > 50 µM (not active).

In the case of `COc1ccc(N(C(=O)c2ccncc2)S(=O)(=O)c2ccc(Cl)cc2)cc1`, the AC50 [11] is reported as 0.354 µM (active).

— ChEMBL document CHEMBL1201862, “PubChem BioAssay data set” (2004)
